Reference: patent publication US7452688B2, “Transformed cell with enhanced sensitivity to antifungal compound and use thereof” (Sumitomo Chemical Company, Limited, priority 2002, dated 2008)

Tests used:
Assay type in all cases: cell-based, Saccharomyces cerevisiae
AH22 strain = assay: Antifungal compound sensitivity test, control yeast AH22 strain (Example 3); settings: 30° C. 48 hours, absorbance at 600 nm relative to 0 ppm = 100
Experimental: The transformed budding yeast AH22-BcOS1 prepared in Example 2 was cultured while shaking at 30° C. for 18 hours in a Glu-Leu medium. As a control, the AH22 strain was similarly cultured while shaking at 30° C. for 18 hours in a Glu medium. The absorbance at 600 nm of each of the grown transformed budding yeasts in a cell suspension was measured, and a cell suspension diluted with sterilized distilled water to the absorbance of 0.1 was prepared. Further, a cell suspension in which the aforementioned cell suspension of the transformed budding yeast AH22-BcOS1 was diluted 200-fold with a Glu-Leu medium, and a cell suspension in which the aforementioned cell suspension of the AH22 strain was diluted 200-fold with a Glu medium were prepared. A solution in which each of Compounds (1) to (3) was dissolved in dimethylsulfoxide (DMSO) to the concentration of 60 ppm, a solution in which each of Compounds (4) and (5) was dissolved in dimethylsulfoxide (DMSO) to the concentration of 2000 ppm, and a solution in which each of Compounds (6) and (7) was dissolved in dimethylsulfoxide (DMSO) to the concentration of 20 ppm were prepared, and two microplates were prepared in which each 2.0 μL per well of the Compound solution and DMSO as a control were dispensed into two wells. In one microplate among them, each 200 μL of cell suspensions of the transformed budding yeast AH22-BcOS1 which had been prepared by dilution as described above was dispensed, and cultured by allowing to stand at 30° C. for 48 hours. In another microplate, each 200 μL of the cell suspensions of the control yeast AH22 strain which had been prepared by dilution as described above was dispensed, and cultured by allowing to stand at 30° C. for 48 hours. After culturing, the absorbance at 600 nm of each well was measured with a microplate reader.
Degree of growths of both of the transformed budding yeasts cultured under the presence of each of Compound (1) to (7) and budding yeast as a control therefor are shown in Table 1. Degree of growths of both of the transformed budding yeasts and budding yeasts as a control therefor are expressed by a relative value in percentage, letting the absorbance at 600 nm in a well having the concentration of the aforementioned Compound of 0 ppm to be 100. It was confirmed that an inhibiting degree of growth of TM182-BcOS1 by each test substance was grater than an inhibiting degree of growth of AH22-BcOS1 by each test substance, and the TM182-BcOS1 was a transformed cell with the enhanced sensitivity to an antifungal compound as compared with AH22-BcOS1.

AH22 = assay: Antifungal compound sensitivity test, control yeast AH22 (Example 6, Table 2); settings: absorbance at 600 nm relative to 0 ppm = 100
From the text: Degrees of growths of both of the transformed budding yeasts cultured under the presence of Compounds (1) to (7) and budding yeast as a control therefor are shown in Table 2. Degrees of growths of both of the transformed budding yeasts and budding yeast as a control are expressed by a relative value in percentage, letting the absorbance at 600 nm at the concentration of the Compound of 0 ppm to be 100. It was confirmed that an inhibiting degree of growth of the transformed budding yeast TM182-BcOS1-I 365S by each test substance was grater than an inhibiting degree of growth of the transformed budding yeast AH22-BcOS1-I 365S by each test substance, and the transformed budding yeast TM182-BcOS1-I365S was a transformed cell with the enhanced sensitivity to an antifungal compound as compared with the transformed budding yeast AH22-BcOS1-I365S.

[1] = test system: transformed budding yeast AH22-FoOS1; assay: Antifungal compound sensitivity test, transformed budding yeast AH22-FoOS1 (Example 13); settings: 30° C. 26.5 hours, relative value in percentage
Experimental: The transformed budding yeast AH22-FoOS1 prepared in Example 12 was cultured while shaking at 30° C. for 18 hours in a Glu-Leu medium. As a control, the AH22 strain was similarly cultured while shaking at 30° C. for 18 hours in a Glu medium. The absorbance at 600 nm of each grown transformed budding yeast in a cell suspension was measured, and cell suspension diluted with sterilized distilled water to the absorbance of 0.1 was prepared. Further, a cell suspension in which the aforementioned cell suspension of the transformed budding yeast AH22-FoOS1 was diluted 50-fold with a Glu-Leu medium, and a cell suspension in which the aforementioned cell suspension of the AH22 strain was diluted 50-fold with a Glu medium were prepared.
A solution in which each of Compounds (1) to (3) was dissolved in dimethylsulfoxide (DMSO) to the concentration of 600 ppm, a solution in which each of Compounds (4) and (5) was dissolved in dimethylsulfoxide (DMSO) to the concentration of 2000 ppm, and a solution in which Compounds (6) and (7) was dissolved in dimethylsulfoxide (DMSO) to the concentration of 20 ppm were prepared, and two microplates were prepared in which each 1.0 μL per well of the Compound solution and DMSO as a control were dispensed. In one microplate among them, each. 100 μL of cell suspensions of the transformed budding yeast AH22-FoOS1 which had been prepared by dilution as described above was dispensed, and cultured by allowing to stand at 30° C. for 26.5 hours. In another microplate, each 100 μL of cell suspensions of the control yeast AH22 strain which had been prepared by dilution as described above was dispensed, and cultured by allowing to stand at 30° C. for 24.5 hours. After culturing, the absorbance at 600 nm of each well was measured with a microplate reader.
A degree of growth of the transformed budding yeast is expressed as a relative value in percentage, letting the absorbance at 600 nm at the concentration of the Compound of 0 ppm to be 100. It was confirmed that an inhibiting degree of growth of the transformed budding yeast TM182-FoOS1 by each test substance was grater than an inhibiting degree of growth of the transformed budding yeast AH22-FoOS1 by each test substance, and the transformed budding yeast TM182-FoOS1 was a transformed cell with the enhanced sensitivity to an antifungal compound as compared with the transformed budding yeast AH22-FoOS1.

SMILES: COP(=S)(OC)Oc1c(Cl)cc(C)cc1Cl [Compound (5), Tolclofos-methyl]
- Degree of growth of budding yeast (%) AH22 Glu medium (AH22 strain; final concentration 20 ppm): 97%
- Degree of growth of budding yeast (%) AH22 Glu medium (AH22; final concentration 20 ppm): 80%
- Degree of growth of budding yeast AH22-FoOS1 Glu-Leu medium ([1]; final concentration 20 ppm): 71%

SMILES: O=[N+]([O-])c1c(Cl)c(Cl)c(Cl)c(Cl)c1Cl [Compound (4), Quintozene]
- Degree of growth of budding yeast (%) AH22 Glu medium (AH22 strain; final concentration 20 ppm): 96%
- Degree of growth of budding yeast (%) AH22 Glu medium (AH22; final concentration 20 ppm): 96%
- Degree of growth of budding yeast AH22-FoOS1 Glu-Leu medium ([1]; final concentration 20 ppm): 90%

SMILES: N#Cc1c[nH]cc1-c1cccc(Cl)c1Cl [Compound (7), Fenpiclonil]
- Degree of growth of budding yeast (%) AH22 Glu medium (AH22 strain; final concentration 0.2 ppm): 101%
- Degree of growth of budding yeast (%) AH22 Glu medium (AH22; final concentration 0.2 ppm): 91%
- Degree of growth of budding yeast AH22-FoOS1 Glu-Leu medium ([1]; final concentration 0.2 ppm): 88%

SMILES: N#Cc1c[nH]cc1-c1cccc2c1OC(F)(F)O2 [Compound (6), Fludioxonil]
- Degree of growth of budding yeast (%) AH22 Glu medium (AH22 strain; final concentration 0.2 ppm): 99%
- Degree of growth of budding yeast (%) AH22 Glu medium (AH22; final concentration 0.2 ppm): 92%
- Degree of growth of budding yeast AH22-FoOS1 Glu-Leu medium ([1]; final concentration 0.2 ppm): 69%

SMILES: C=CC1(C)OC(=O)N(c2cc(Cl)cc(Cl)c2)C1=O (stereo not drawn) [Compound (3), Vinclozolin]
- Degree of growth of budding yeast (%) AH22 Glu medium (AH22 strain; final concentration 0.6 ppm): 98%
- Degree of growth of budding yeast (%) AH22 Glu medium (AH22; final concentration 6 ppm): 87%
- Degree of growth of budding yeast AH22-FoOS1 Glu-Leu medium ([1]; final concentration 6 ppm): 86%

SMILES: CC(C)NC(=O)N1CC(=O)N(c2cc(Cl)cc(Cl)c2)C1=O [Compound (2), Iprodione]
- Degree of growth of budding yeast (%) AH22 Glu medium (AH22 strain; final concentration 0.6 ppm): 99%
- Degree of growth of budding yeast (%) AH22 Glu medium (AH22; final concentration 6 ppm): 91%
- Degree of growth of budding yeast AH22-FoOS1 Glu-Leu medium ([1]; final concentration 6 ppm): 91%

SMILES: CC12CC1(C)C(=O)N(c1cc(Cl)cc(Cl)c1)C2=O (stereo not drawn) [Compound (1), Procymidone]
- Degree of growth of budding yeast (%) AH22 Glu medium (AH22 strain; final concentration 0.6 ppm): 99%
- Degree of growth of budding yeast (%) AH22 Glu medium (AH22; final concentration 6 ppm): 88%
- Degree of growth of budding yeast AH22-FoOS1 Glu-Leu medium ([1]; final concentration 6 ppm): 81%
